Data on one molecule can be found in patent US20260258397A1, “REAGENTS AND SYSTEMS FOR […]” (priority 2023, published 2026).

In one assay the target is T1, PYR1^WIN-M (Arabidopsis thaliana, UniProt O49686, A160I/D26G/F159A/H60P/K59Q/N90S/Y23H).
T1 construct: made in house; host or cells: E. coli
Description: PYR1 ELISA-like plate assay, immobilized PYR1^WIN-M with biotinylated ΔN-HAB1^T+. The settings on record: PYR1^WIN-M ELISA-like format. It is filed as binding. Here is the method:
PYR1 was immobilized overnight in clear plates, blocked with KPL milk diluent in buffer CBS ^17 (CBSM). All binding reactions were performed using CBSM. Detection was performed via binding a streptavidin-HRP conjugate to biotinylated ΔN-HAB1^T+ followed by incubation with a commercial TMB reagent. Lower limits of detection (LODs) were determined by linear regression of the response data in the low linear range using the formula LOD=3σy/m, where m is the slope of the response line and σy is the standard error of the y intercept using data combined from biological replicates.
Unconjugated 6×His-MBP-PYR1 variants were immobilized to Microlon clear plates (655081) using 100 μL of CBS without pH modification, at a protein concentration of 100 μg mL^−1, or 1.57 AM at 4° C. overnight. Wells assigned as no PYR controls received only CBS. Plates were sealed using Microseal B adhesive sealers (BioRad MSB-1001). […] The pellet was stored on ice until the blocked and washed plates were ready to receive the binding reactions. ΔN-HAB1^T+ was exchanged into CBSM with 1 mM DTT and 1 mM TCEP (CBSM++) using Zeba™ spin desalting columns (Thermo) were equilibrated with CBSM++. ΔN-HAB1^T+ was diluted to 10× the final binding reaction concentration and was immediately added to the pre-assembled assays in PCR plates, which were mixed by pipetting and transferred to the washed, blocked Microlon plates. […]
On the technique in general: ELISA stands for enzyme-linked immunosorbent assay.

Assay [1] has as its system PYR1 mutant receptors (ligand-dependent binding to HAB1). Briefly: Yeast two-hybrid screens of PYR1 DSM and CB-S libraries for cannabinoid sensors.

T1 sequence (O49686 whole entry Y23H/D26G/K59Q/H60P/N90S/F159A/A160I, other chains not shown): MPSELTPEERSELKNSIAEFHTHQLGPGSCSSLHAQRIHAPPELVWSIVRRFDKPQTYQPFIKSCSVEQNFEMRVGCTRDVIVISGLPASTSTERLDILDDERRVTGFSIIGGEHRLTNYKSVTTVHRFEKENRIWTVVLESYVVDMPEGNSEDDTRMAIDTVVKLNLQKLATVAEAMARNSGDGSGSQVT

In the case of `Cc1c(C(=O)c2cccc3ccccc23)c2cccc3c2n1[C@H](CN1CCOCC1)CO3` [WIN 55,212-2], at PYR1^WIN-M, the “average LOD from two biological replicates” value was 0.21 ng/ml. The “affinity of improved sensors” value in assay [1] (CB-S2 library screened on 50 nM, 25 nM: JWH-015 PYR1 K59N/Y120H/F159L/A160G, JWH-016 V81I/Y120G/F159L/A160G, JWH-072 E4G/K59N/Y120H/F159L/A160G, WIN 55,212 E4G/Y23H/D26G/K59Q/F159A/A160I) is “low nM affinity”. The “outcome of DSM library Y2H selection” value in assay [1] (DSM library selected on 30 μM ligand, hits for 'pM concentrations' as printed) is reported as “double mutant hits”.
